Measurements reported in patent US20050255504A1, “Method of detecting an increased susceptibility to breast cancer” (priority 2004, published 2005).
Residue numbers refer to the chain shown, from its start.

T1: COMT (Homo sapiens, UniProt P21964)
T1 construct: made in house; host or cells: Escherichia coli DH5alphaF'Iq
T1 sequence (P21964 1-221 isoform P21964-2): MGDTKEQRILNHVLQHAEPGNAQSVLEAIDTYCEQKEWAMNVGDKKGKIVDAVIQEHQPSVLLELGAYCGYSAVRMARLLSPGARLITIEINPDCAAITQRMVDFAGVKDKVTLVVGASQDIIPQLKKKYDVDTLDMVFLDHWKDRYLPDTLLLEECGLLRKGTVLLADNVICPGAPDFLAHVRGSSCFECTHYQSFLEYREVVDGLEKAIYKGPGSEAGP

B1: Wild type: purified recombinant His-tagged wild type CYP1B1: 48Arg, 119Ala, 432Val, 453Asn (protein)
chain: HHHHHHLLSVLATVHVGQRLLRQRRRQLRSAPPGPFAWPLIGNAAAVGQAAHLSFARLARRYGDVFQIRLGSCPIVVLNGERAIHQALVQQGSAFADRPAFASFRVVSGGRSMAFGHYSEHWKVQRRAAHSMMRNFFTRQPRSRQVLEGHVLSEARELVALLVRGSADGAFLDPRPLTVVAVANVMSAVCFGCRYSHDDPEFRELLSHNEEFGRTVGAGSLVDVMPWLQYFPNPVRTVFREFEQLNRNFSNFILDKFLRHCESLRPGAAPRDMMDAFILSAEKKAAGDSHGGGARLDLENVPATITDIFGASQDTLSTALQWLLLLFTRYPDVQTRVQAELDQVVGRDRLPCMGDQPNLPYVLAFLYEAMRFSSFVPVTIPHATTANTSVLGYHIPKDTVVFVNQWSVNHDPLKWPNPENFDPARFLDKDGLINKDLTSRVMIFSVGKRRCIGEELSKMQLFLFISILAHQCDFRANPNEPAKMNFSYGLTIKPKSFKVNVTLRESMELLDSAVQNLQAKETCQ
B2: Variant 4: recombinant CYP1B1 variant: 48Arg, 119Ala, 432Val, 453Ser (protein, UniProt Q16678 1-543, looked up, variant N453S)
Cytochrome P450 1B1: MGTSLSPNDPWPLNPLSIQQTTLLLLLSVLATVHVGQRLLRQRRRQLRSAPPGPFAWPLIGNAAAVGQAAHLSFARLARRYGDVFQIRLGSCPIVVLNGERAIHQALVQQGSAFADRPAFASFRVVSGGRSMAFGHYSEHWKVQRRAAHSMMRNFFTRQPRSRQVLEGHVLSEARELVALLVRGSADGAFLDPRPLTVVAVANVMSAVCFGCRYSHDDPEFRELLSHNEEFGRTVGAGSLVDVMPWLQYFPNPVRTVFREFEQLNRNFSNFILDKFLRHCESLRPGAAPRDMMDAFILSAEKKAAGDSHGGGARLDLENVPATITDIFGASQDTLSTALQWLLLLFTRYPDVQTRVQAELDQVVGRDRLPCMGDQPNLPYVLAFLYEAMRFSSFVPVTIPHATTANTSVLGYHIPKDTVVFVNQWSVNHDPLKWPNPENFDPARFLDKDGLISKDLTSRVMIFSVGKRRCIGEELSKMQLFLFISILAHQCDFRANPNEPAKMNFSYGLTIKPKSFKVNVTLRESMELLDSAVQNLQAKETCQ
B3: Variant 1: recombinant CYP1B1 variant: 48Gly, 119Ala, 432Val, 453Asn (protein, UniProt Q16678 1-543, looked up, variant R48G)
Cytochrome P450 1B1: B2 Cytochrome P450 1B1 with R48G, S453N
B4: Variant 2: recombinant CYP1B1 variant: 48Arg, 119Ser, 432Val, 453Asn (protein, UniProt Q16678 1-543, looked up, variant A119S)
Cytochrome P450 1B1: B2 Cytochrome P450 1B1 with A119S, S453N

Assays:
[1] = biological target: T1, COMT; test: Assay of COMT activity: methylation of catechol estrogens by purified recombinant His-COMT; assay type: biochemical; conditions: for formation as product of COMT methylation of 4-OHE2 / 4-OHE1: GC/MS detection of product; for pattern of the rates of methylation versus substrate concentration: substrate of COMT, FIG. 9
Experimental: Assay of COMT Activity. Purified recombinant His-COMT (300 pmol) was reconstituted in 0.5 ml of 100 mM KPO4, pH 7.4, containing 5 mM MgCl2, 10 mM (β-mercaptoethanol, and 200 μM SAM. Reactions were initiated by adding varying concentrations of each individual catechol estrogen (2, 3, 6, 9, 12, 15, 20, 40, 60, 80, and 100 μM). Blanks contained all compounds except SAM. Reactions proceeded for 10 min at 37° C. with gentle shaking and then were terminated by addition of 2 ml CH2Cl2. To determine COMT activity in breast cancer cells, ZR-75 and MCF-7 cells were harvested at confluency and homogenized in 100 mM KP04, pH 7.4, 5 mM MgCl2, 10 mM β-mercaptoethanol. Following ultracentrifugation of the cell homogenate (110,000 g, 30 min, 4° C.), the supernatant cytosol was divided into aliquots for ICELISA, protein determination (BCA assay; Pierce, Rockford, Ill.), and COMT assay. The latter was carried out in the presence of 200 μM SAM and 100 μM catechol estrogen for 20 min at 37° C. and then terminated by addition of CH2Cl2. The concentration of endogenous catechol and methoxy estrogens was below the limit of detection by gas chromatography/mass spectrometry.
Extraction and Gas Chromatography/Mass Spectrometry Analysis of Catechol Estrogens. A deuterated internal standard (100 μl of 8 mg/liter E2-d4 in methanol) was added and all estrogens extracted into the CH2Cl2 by vortex mixing for 30 s. 1.5 ml of the CH2Cl2 fraction was evaporated to dryness under air and volatile TMS derivatives prepared by heating the residue with 100 μl of 50% NO-bis(trimethylsilyl)trifluoroacetamide/1% trimethyl chlorosilane in acetonitrile at 56° C. for 30 min. The TMS derivatives of the estrogen metabolites were separated by gas chromatography (H—P 5890, Hewlett-Packard, Wilmington, Del.) on a 5% phenyl methyl silicone stationary phase fused silica capillary column (30 m×0.2 mm×0.5 μm film, HP5; Hewlett-Packard). Helium carrier gas was used at a flow of 1 ml/min. The injector was operated at 250° C., with 2 μl injected in the splitless mode, with a purge (60 ml/min helium) time of 0.6 min. The oven temperature was held at 180° C. for 0.5 min, then raised at 6° C./min to 250° C. where it was held for 17 min, then raised to 300° C. at 8° C./min to give a total run time of 35.42 min. This program permitted adequate separation of a wide range of estrogen metabolites. Retention times (in min) for the TMS derivatives were E1 20.13, E2 and E2-d4 21.89, 4-MeOE1 23.52, 2-MeO-3-MeOE1 (underivatized) 23.75, 2-OH-3-MeOE1 24.87, 2-MeOE1 25.2, 4-MeOE2 25.78, 2-OHE1 and 2-MeO-3-MeOE2 26.19, 2-OH-3-MeOE2 26.9, 2-MeOE2 27.18, 4-OHE1 27.27, 6a-OHE2 27.29, 2-OHE2 27.44, 4-OHE2 28.06, E3 28.38. The E1 mass spectrometer (H—P 5970) was operated in the selected ion monitoring mode from 18 to 30 min. Ions monitored were TMS-E1 342, 257, 343; TMS2-E2-d4 420, 421, 287; TMS2-E2 416, 417, 285; TMS-4-MeOE1, TMS-2-OH-3-MeOE1, TMS-2-MeOE1 and TMS-3-MeO-4-OHE1 372, 373, 342; 2-MeO-3-MeOE1 314, 315, 229; TMS2-4-MeOE2, TMS2-2-OH-3-MeOE2, TMS2-2-MeOE2 and TMS2-3-MeO-4-OHE2 446, 447, 315; TMS2-2-OHE1 430, 431, 432; TMS-2-MeO-3-MeOE2 388, 389, 257; TMS2-4-OHE1 430, 431, 345; TMS2-6α-OHE2 414, 283, 309; TMS3-2-OHE2 and TMS3-4-OHE2 504, 505, 373; TMS3-E3 504, 505, 311 (FIG. 7). The instrument was calibrated by simultaneous preparation of an 11-point calibration over the range 0-22 nmol/tube of each compound. Sensitivity was determined to be between 0.02 and 0.04 nmol/tube (400-800 finol on column) for the various compounds. […] Absolute extraction efficiency for E2,2-OH-E2 and 4-OH-E2 at 3.5 nmol/tube was 119, 96, and 107% assessed by comparison to injections of spiked solvent samples onto the gas chromatograph. Internal standard added prior to extraction compensated for deviation from 100% recovery for all investigated compounds.
Statistical Analysis. […]

[2] = system: renal DNA; conditions: hamster, in vivo; cited from earlier work
[3] = system: CYP1B1; test: Assay of CYP1B1 E2 hydroxylation activity (purified recombinant enzyme, GC/MS of products); assay type: biochemical, human; conditions: E2 16a-hydroxylation
Experimental: Assay of CYP1B1 E2 Hydroxylation Activity. […] An NADPH-generating system consisting of 5 mM glucose 6-phosphate and 0.5 U of glucose-6-phosphate dehydrogenase/ml was added and reactions initiated by adding NADP+ to a final concentration of 0.5 mM. Reactions proceeded for 10 min at 37° C. with gentle shaking and then were terminated by addition of 2 ml CH2Cl2. Extraction and Gas Chromatography/Mass Spectrometry Analysis of E2 and Metabolites. […] Hewlett-Packard). Helium carrier gas was used at a flow of 1 ml/min. The injector was operated at 250° C., with […] injected in the splitless mode, with a purge (60 ml/min helium) time of 0.6 min. The oven temperature was held at 180° C. for 0.5 min, then raised at 6° C./min to 250° C. where it was held for 17 min, then raised to 300° C. at 8° C./min to give a total run time of 35.42 min. […] The E1 mass spectrometer (H-P 5970) was operated in the selected ion monitoring mode from 18 to 34 min. […] TMS2-E2 416, 285, 326; […]2 504, 373, 325; TMS3-16_-OH-E2 345, 311, 504. […] Internal standard added prior to extraction compensated for deviation from 100% recovery. Statistical Analysis. Kinetic parameters (Km and kcat) were determined by nonlinear regression analysis using the computer program GraphPad PRISM (San Diego, Calif.).

Row | Molecule | pattern of the rates of methylation versus substrate concentration [1] | levels of the oxidized base 8-hydroxy-deoxyguanosine in renal DNA [2] | 16a-OH-Estradiol kcat [3] [s⁻¹] | further results
1 | COc1ccc2c(c1O)CC[C@@H]1[C@@H]2CC[C@]2(C)[C@@H](O)CC[C@@H]12 [Variant 3-MeO-4-OHE2] | – | – | – | formation as product of COMT methylation of 4-OHE2 / 4-OHE1 [1]: not observed
2 | C[C@]12CC[C@@H]3c4ccc(O)c(O)c4CC[C@H]3[C@@H]1CCC2=O [Variant 4-OHE1] | sigmoid curve pattern | significantly increased | – | –
3 | C[C@]12CC[C@@H]3c4ccc(O)c(O)c4CC[C@H]3[C@@H]1CC[C@@H]2O [Variant 4-OHE2] | sigmoid curve pattern | significantly increased | – | –
4 | C[C@]12CC[C@@H]3c4cc(O)c(O)cc4CC[C@H]3[C@@H]1CC[C@@H]2O [Variant 2-OHE2] | typical hyperbolic patterns | did not cause oxidative DNA damage | – | –
5 | COc1ccc2c(c1O)CC[C@@H]1[C@@H]2CC[C@]2(C)C(=O)CC[C@@H]12 [Variant 3-MeO-4-OHE1] | – | – | – | formation as product of COMT methylation of 4-OHE2 / 4-OHE1 [1]: not observed
6 | C[C@]12CC[C@@H]3c4cc(O)c(O)cc4CC[C@H]3[C@@H]1CCC2=O [Variant 2-OHE1] | typical hyperbolic patterns | – | – | –
7 | B1 | – | – | 0.005 ± 0.00033 | 16a-OH-Estradiol kcat ([3]; listed as Wild type CYP1B1): 0.005 ± 0.00033 s⁻¹; 16a-OH-Estradiol kcat ([3]; listed as wild type CYP1B1): 0.005 ± 0.00033 s⁻¹
8 | B2 | – | – | 0.0065 ± 0.00033 | –
9 | B3 | – | – | 0.00933 ± 0.00067 | –
10 | B4 | – | – | 0.00567 ± 0.00033 | –
